Test results: patent US20120034613A1, “Apparatus and Method for Testing Relationships Between Gene Expression and Physical Appearance of Skin” (NSE Products, Inc., priority 2010, published 2012)

Tested on: EpidermFT™ Skin Model (EFT-400) full thickness skin cultures
Assay: Affymetrix GeneChip HG U133 Plus 2.0 microarray global gene expression, agent-exposed vs untreated skin cultures
Assay type: cell-based, human
Details: Salicin 0.5% vs Untreated Control, 24 hr; direction down

## OCc1ccccc1O[C@@H]1O[C@H](CO)[C@@H](O)[C@H](O)[C@H]1O [Salicin, 2-(Hydroxymethyl)phenyl β-D-glucospyranoside]
  Fold change IDH2 (210045_at): 2.059
  Fold change IL22RA1 (220056_at): 2.023
  Fold change INPP5D (203332_s_at): 2.061
  Fold change ITGA3 (201474_s_at): 2.052
  Fold change JAG1 (209099_x_at): 2.044
  Fold change JAG1 (216268_s_at): 2.123
  Fold change JMJD7 /// JMJD7-PLA2G4B /// PLA2G4B (222256_s_at): 2.101
  Fold change KCNK7 (224055_x_at): 2.127
  Fold change KCTD15 (222668_at): 2.037
  Fold change KIF1B (209234_at): 2.105
  Fold change KIF1B (225878_at): 2.14
  Fold change KLK1 (216699_s_at): 2.169
  Fold change KRT5 (201820_at): 2.154
  Fold change KRT6A (209125_at): 2.034
  Fold change KRT10 (207023_x_at): 2.066
  Fold change KRTCAP3 (235148_at): 2.158
  Fold change LMNA (212089_at): 2.1
  Fold change LMNA (1554600_s_at): 2.053
  Fold change LMNB1 (203276_at): 2.146
  Fold change LOC284837 (1563088_a_at): 2.115
  Fold change LOC286440 (209733_at): 2.16
  Fold change LOC400027 (226413_at): 2.041
  Fold change LOC401233 (1558882_at): 2.002
  Fold change LOC648245 (227739_at): 2.064
  Fold change LOC652968 (233528_s_at): 2.038
  Fold change LOC727820 (227384_s_at): 2.055
  Fold change LOC100128443 /// MAST4 (210958_s_at): 2.131
  Fold change LOC100128822 (235174_s_at): 2.067
  Fold change LOC100130837 (242255_at): 2.078
  Fold change LOC100131262 (1558152_at): 2.081
  Fold change LOC100131851 /// LOC100134497 /// LOC401002 /// LOC646674 /// SSBP3 (222482_at): 2.025
  Fold change LOC100133772 /// SLC16A5 (206600_s_at): 2.044
  Fold change LOC100134937 (229685_at): 2.12
  Fold change LPHN1 (47560_at): 2.092
  Fold change LY75 (205668_at): 2.028
  Fold change LYSMD4 (228954_at): 2.116
  Fold change MAFB (218559_s_at): 2.112
  Fold change MAPRE2 (202501_at): 2.078
  Fold change MEGF9 (212831_at): 2.176
  Fold change MFAP5 (213764_s_at): 2.112
  Fold change MIB2 (226644_at): 2.032
  Fold change MPP7 (238451_at): 2.14
  Fold change MTHFR (226929_at): 2.073
  Fold change MTMR1 (214975_s_at): 2.146
  Fold change MUC1 (213693_s_at): 2.138
  Fold change MYO18A /// TIAF1 (202039_at): 2.04
  Fold change NBEAL2 (212443_at): 2.05
  Fold change NCF2 (209949_at): 2.128
  Fold change NCRNA00086 (238697_at): 2.098
  Fold change PAIP1 (208051_s_at): 2.141
  Fold change PAIP2B (221868_at): 2.043
  Fold change PAWR (204005_s_at): 2.161
  Fold change PAWR (229515_at): 2.15
  Fold change PDIK1L (227255_at): 2.059
  Fold change PERP (217744_s_at): 2.176
  Fold change PIGW (1558292_s_at): 2.085
  Fold change PLEKHA2 (225136_at): 2.159
  Fold change PLS3 (201215_at): 2.167
  Fold change PNMA2 (209598_at): 2.146
  Fold change POLE2 (205909_at): 2.104
  Fold change POLH (231115_at): 2.029
  Fold change POLR3B (219459_at): 2.135
  Fold change POU3F1 (208345_s_at): 2.16
  Fold change PPAP2C (209529_at): 2.033
  Fold change PPP1CB (201409_s_at): 2.054
  Fold change PPP2CA (208652_at): 2.035
  Fold change PRDX2 (39729_at): 2.068
  Fold change PRKX (204061_at): 2.015
  Fold change PTCH1 (209815_at): 2.148
  Fold change PTGFR (1555097_a_at): 2.022
  Fold change PVRL1 (225211_at): 2.08
  Fold change RAB7B (1553982_a_at): 2.095
  Fold change RAPGEFL1 (218657_at): 2.162
  Fold change RHOV (241990_at): 2.107
  Fold change RICS (203431_s_at): 2.143
  Fold change RNF170 (226104_at): 2.034
  Fold change RORA (235567_at): 2.083
  Fold change RPS6KA5 (204633_s_at): 2.051
  Fold change RPS6KB2 (203777_s_at): 2.074
  Fold change SCRN3 (222849_s_at): 2.115
  Fold change SDCCAG8 (243963_at): 2.133
  Fold change SEMA4D (203528_at): 2.021
  Fold change SERPINB1 (213572_s_at): 2.014
  Fold change SETBP1 (227478_at): 2.148
  Fold change SHROOM2 (204967_at): 2.088
  Fold change SLC5A3 (212944_at): 2.165
  Fold change SLC24A3 (219090_at): 2.138
  Fold change SLC45A4 (225598_at): 2.071
  Fold change SLCO3A1 (219229_at): 2.162
  Fold change SMAP2 (225282_at): 2.14
  Fold change SMCR7 (235896_s_at): 2.152
  Fold change SNX21 (1553960_at): 2.031
  Fold change SNX24 (218705_s_at): 2.152
  Fold change SORD (201563_at): 2.01
  Fold change ST8SIA4 (230836_at): 2.021
  Fold change STK24 (208854_s_at): 2.165
  Fold change SYNGR2 (201079_at): 2.14
  Fold change TANC1 (225308_s_at): 2.118
  Fold change TCEA3 (226388_at): 2.034
  Fold change TCHP (223455_at): 2.126
  Fold change TGOLN2 (1554608_at): 2.114
  Fold change THBD (203888_at): 2.109
  Fold change TIMM22 (219184_x_at): 2.067
  Fold change TMC5 (222904_s_at): 2.096
  Fold change TMEM19 (226860_at): 2.032
  Fold change TMEM45A (219410_at): 2.136
  Fold change TMEM50B (225182_at): 2.096
  Fold change TMEM80 (65630_at): 2.031
  Fold change TP53I3 (210609_s_at): 2.13
  Fold change TRAF3IP2 (202987_at): 2.079
  Fold change TRIM2 (202342_s_at): 2.062
  Fold change TTC30B (1554588_a_at): 2.011
  Fold change VPS4B (218171_at): 2.031
  Fold change WNK1 (39313_at): 2.008
